Several values for one entry are separate records, joined by “and”; a condition that tells them apart may be missing. Equal entries are not always repeated. Where two headings read alike, the source gives them in different places.
What was measured:
Ae. aegypti NPYLR7 = Ae. aegypti NPYLR7 (Aedes aegypti, UniProt U5N1H5); experiment: In vitro calcium (GCaMP6s) FLIPR assay in HEK293T cells transfected with NPYLR7; format: cell-based; settings: for in vitro potency (in words): relative to reference compound TDI-012631; for activation at 100 µM: single replicate of the dose-response curve
Sequence of Ae. aegypti NPYLR7 (U5N1H5 entry or part of it): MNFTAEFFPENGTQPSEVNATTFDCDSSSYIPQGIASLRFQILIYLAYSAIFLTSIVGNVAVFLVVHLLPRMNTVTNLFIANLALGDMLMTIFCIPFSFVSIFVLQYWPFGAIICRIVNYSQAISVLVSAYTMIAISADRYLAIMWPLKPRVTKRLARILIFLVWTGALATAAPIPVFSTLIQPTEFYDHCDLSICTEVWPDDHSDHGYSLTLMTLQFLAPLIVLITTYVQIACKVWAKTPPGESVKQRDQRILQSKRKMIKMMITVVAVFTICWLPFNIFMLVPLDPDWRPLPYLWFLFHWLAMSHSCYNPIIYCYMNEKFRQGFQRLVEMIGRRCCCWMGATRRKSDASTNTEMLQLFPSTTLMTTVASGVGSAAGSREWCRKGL
Description: The in vitro screening assay was adapted from, and carried out at HD Biosciences (HDB, Shanghai) as follows: HEK293T (Thermo Fisher Scientific) cells were grown in Dulbecco’s modified Eagle medium (DMEM) (high glucose, with glutamine), 10% fetal bovine serum, 1% penicillin–streptomycin (Pen/Strep), seeded in a 75 cm^2 flask, and incubated at 37 °C and 5% CO2. Cells were transiently transfected with 1 μg of each plasmid expressing GCaMP6s (Addgene […]) (Chen et al., 2013), mouse Gqα15 (Addgene #40753) (Offermanns and Simon, 1995) and Ae. aegypti NPYLR7 (Addgene #52392) (Duvall et al. 2019) using Lipofectamine 2000 (Invitrogen) in 4 ml of Opti-MEM (Invitrogen). This mixture was added to a plate after 20 min and incubated for 6–8 h. Cells were then trypsinized, resuspended in phenol-free media, and plated in a 384-well plate (Greiner Bio-One) at a density of 20,000 cells per 40 μl, and incubated overnight (37 °C, 5% CO2). Cells were imaged directly in phenol-free media. Plates were loaded into a Molecular Devices fluorescence imaging plate reader (FLIPR) with an excitation wavelength of 470–495 nm and an emitted wavelength of 515–575 nm. Plates were imaged every second for 5 min. After 30 s of baseline fluorescence recording, 10 μl of the test compound in reading buffer [Hank’s Balanced Salt Solution (Gibco) + 20 mM HEPES (Sigma-Aldrich)] was added. Concentrations tested ranged from 0 to 100 μM. Data were collected in raw fluorescence units (RFU).
Each test plate included replicates of 10 μM FMRFa3 (H‐Ala‐Gly‐Gln‐Gly‐Phe‐Met‐Arg‐Phe‐NH2), an Ae. aegypti neuropeptide agonist of NPYLR7 used to calculate the hundred percent effect (HPE). The zero percent effect (ZPE) control was calculated as a response to buffer alone. The Z′ factor was calculated for each plate by Z^′=1-3σHPE+3σZPE/|μHPE-μZPE| . Plates with Z′ < 0.5 were excluded from analysis. Raw fluorescence units (RFU) were converted to percent effect relative to the average of the ZPE and HPE. Percent effect = (sample luminescence − average ZPE)/(average HPE − average ZPE)×100. […] Each replicate was plotted as percent effect versus log[concentration], and replicates with maximal responses between 20 and 250% were used for EC50 calculations. Relative EC50 was calculated using an [Agonist] versus response–variable slope four-parameter model where Y=Bottom+(X^Hillslope)∗(Top-Bottom)/(X^HillSlope+EC50^HillSlope) . For compounds with multiple replicates, the relative EC50 of each replicate was averaged.

[1] = test system: Aedes aegypti (Orlando strain) females; experiment: Host-seeking screening assay (miniport olfactometer); format: in vivo; settings: for Attraction (relative to saline): fed 1 μM in saline, tested 48 h post-meal, per-compound value of Fig. 3C
Description: (§1) Groups of 60–150 females were placed in bucket cages with a diameter of 21.6 cm and height of 16.5 cm (VWR) and fasted with access to water for 24 h prior to feeding. Meals were delivered to females via Glytube membrane feeders as described previously. Meals consisted of 1.5 ml sheep blood (HemoStat Laboratories), saline (400 mM NaHCO3 + dih2O), or saline and test compound. Lyophilized compounds were stored at room temperature until use. High-concentration stocks (30 mM in 100% dimethyl sulfoxide [DMSO]) (Sigma-Aldrich) were stored at −20 °C and diluted in saline immediately prior to feeding. Once prepared, meals and glycerol heating elements were warmed in a 42 °C water bath for 15 min to provide warmth to attract mosquitos to feed. ATP (1 mM final concentration) and test compounds (1 μM final concentration) were added prior to placing the meal on top of the mesh on the cage containing female mosquitos. Females were allowed 15–20 min to feed to repletion. Abdominal engorgement was scored by eye and confirmed by weighing females to ensure full feeding (Data S1). […] Females were returned to their original cage with a diH2O wick for 48 h prior to behavioral testing. The lethality of each compound was measured by counting the number of dead females in each cage 24 h post-meal.
Miniport olfactometers were fabricated in-house as described previously. Information regarding design, construction, and use can be found at https://github.com/VosshallLab/Miniport-Construction. Miniport canisters consisted of a 6″ × 3″ × 3″ acrylic tube with a mesh screen to allow for air flow. Groups of 10–20 females were loaded into canisters 24 h post-meal. Females were left in canisters overnight to acclimate with two cotton balls soaked in diH20 to prevent desiccation. Behavior trials began 48 h post-meal. Canisters were randomly assigned to attraction traps 1–4 and given 5 min to acclimate. The stimulus end of the trap was connected to a flowmeter that supplied 5% CO2 at a rate of 30 ml/min. Thirty seconds of CO2 flow was supplied to activate females prior to opening the sliding door. Once opened, the sliding door gave females access to the attraction trap baited with a human-scented nylon stocking previously worn by the same experimenter for 8–10 h to collect body odor and stored in a plastic bag at −20 °C until use. After 5 min, the sliding door was closed and attraction was scored as mosquitoes in the attraction trap/total number of mosquitoes. For each experiment data were normalized to the matched average saline attraction from the same experiment (% attracted/average saline attraction). Any dead mosquitoes were excluded from the analysis. Non-fed females and blood-fed females served as environmental control groups while the saline-fed females served as the vehicle control each day. If non-fed or saline-fed females were less than 50% attracted or if blood-fed females were more than 20% attracted behavioral trials were halted and all data from that experimental day were discarded.

[2] = test system: Aedes aegypti (Orlando strain) females; experiment: Glytube feeding: females feeding to repletion and weight per female (meal palatability); format: in vivo; settings: Supplemental Figure 1 Panel A; compounds of Fig 3; individual replicate values
Description: as §1
Supplementary file 13071_2024_6347_MOESM1_ESM.png: Supplementary Material 1: Figure 1. […] (A) Percent of females feeding to repletion and (B) weight per female after feeding on the indicated meal used for testing in Miniport olfactometer experiments in Figure 3B. (C) Percent of females feeding to repletion and (D) weight per female after feeding on the indicated meal used for testing in live host assays in Figure 4. Data are shown as mean with standard deviation. n = 2–22 replicate cages, 60–150 females/cage. Females were weighed in groups of five to ensure reliable readings. Kruskal–Wallis with Dunn’s multiple comparisons to saline-fed group, ns P > 0.01, * P < 0.01, *** P < 0.0001. (PNG 321 KB)

[3] = test system: Aedes aegypti (Orlando strain) females; experiment: Biting assay (mouse-in-cage); format: in vivo; set-up: key to Difference between medians: Actual (vs. saline) / Difference between medians: Hodges-Lehmann (vs. saline): differences in percent biting (blood-fed/total females, %)
Description: as §1, with “ATP (1 mM final concentration) and test compounds (1 μM final concentration) were added prior to placing the meal on top of the mesh on the cage containing female mosquitos.” left out
This assay was modified from. Females were fed and scored as described above. Forty-eight hours post-meal, females were anesthetized in a 4 °C cold room and aspirated into a petri dish (Thermo Fisher Biosciences) with a randomly assigned color powder (Slice of the Moon; Chameleon Colors) to mark their treatment group. Females were then individually removed from the color powder, placed inside a cage measuring 91 cm × 61 cm × 61 cm (BugDorm), and allowed 2–4 h to recover. Each experiment consisted of a cage with 12–20 females in each treatment group including environmental (non-fed and blood-fed) and vehicle (saline-fed) control groups. The experiment began once an anesthetized mouse was introduced to the center of the cage, and females were allowed 15 min to blood-feed. The mouse was then removed, and the cage was placed at 4 °C to anesthetize females for collection. Females were aspirated into a large glass petri dish (Pyrex) and scored under a dissection microscope (Nikon SMZ1500) for powder color and blood-feeding status. Females were scored as blood-fed if fresh blood was present in the abdomen. Percent biting was calculated as females freshly blood-fed/total females in each respective treatment group.

[4] = relative EC50, percent effect relative to 10 μM FMRFa3, read-out: EC50
[5] = EC50 of the individual assay date/plate (assay date), read-out: EC50
[6] = HEK-293T, 11.1111 uM, single replicate, normalised response
[7] = HEK-293T, 33.3333 uM, single replicate, normalised response
[8] = summary EC50 per compound (mean over assay dates), the unit is taken from the neighbouring EC50 (uM) column, read-out: Reported Metric

## COc1ccc2nc(N)nc(C)c2c1 [TDI-012610]
Ae. aegypti NPYLR7; Figure 1E Summary, first list: low sensitivity or >100 (n = 41)
  Reported Metric (Summary list): low sensitivity
Ae. aegypti NPYLR7; Figure 1E, EC50 of the single assay date/plate
  EC50 (uM): low sensitivity
Ae. aegypti NPYLR7; Figure 1E, metric reported per compound, repeated on every replicate line
  Reported Metric (EC50): low sensitivity
Ae. aegypti NPYLR7; HEK-293T, compound 3.7037 uM, single replicate well, read-out: response at 3.7037
  activation at 3.7037 µM: 9.1%
Ae. aegypti NPYLR7; HEK-293T, compound 11.1111 uM, single replicate well, read-out: response at 11.1111
  activation at 11.1111 µM: 4.96%
Ae. aegypti NPYLR7; HEK-293T, compound 33.3333 uM, single replicate well, read-out: response at 33.3333
  activation at 33.3333 µM: 1.85%
Ae. aegypti NPYLR7; [4]
  EC50: > 100 µM
Ae. aegypti NPYLR7
  in vitro potency (in words): loss of potency
[1]
  Attraction (relative to saline): 0.99
[2]
  % feeding (females feeding to repletion): 89.86%

## Cc1nc(NC(=N)N)nc2cc(OCc3ccc(OC(F)F)cc3)ccc12 [TDI-014170]
Ae. aegypti NPYLR7; [5]
  EC50: 1.63 µM
Ae. aegypti NPYLR7; Figure 1E Summary, third list (n = 39), read-out: Reported Metric (Summary list)
  EC50: 1.63 µM
Ae. aegypti NPYLR7; [6]
  activation at 11.1111 µM: 80.9%
Ae. aegypti NPYLR7; [7]
  activation at 33.3333 µM: 99.8%
Ae. aegypti NPYLR7; HEK-293T, normalised response
  activation at 100 µM: 128%
Ae. aegypti NPYLR7; [4]
  EC50: 1.63 µM
Ae. aegypti NPYLR7
  in vitro potency (in words): high in vitro potency
Ae. aegypti NPYLR7; [8]
  EC50: 1.63 µM
[1]
  Attraction (relative to saline): 0.91
[1]; fed at a dose of 1 μM
  effect on host-seeking (in words): did not reduce host-seeking
[3]; fed 1 μM
  Difference between medians: Actual (vs. saline): -19.9
  Difference between medians: Hodges-Lehmann (vs. saline): -11
  Median (percent freshly blood-fed): 59.60, n=9%
  Significantly different (P < 0.05)? vs. saline: No
[3]; fed 1 μM 48 h prior, 15 min exposure, individual replicates, listed as TDI-04170
  Percentage of females that freshly blood-fed on an anesthetized mouse: 44% and 57% and 85% and 74% and 53% and 82% and 55% and 62%
[3]; fed at a dose of 1 μM
  effect on biting / blood-feeding from a live host (in words): nor did it significantly reduce biting

## CCOc1ccc(COc2ccc3c(C)nc(NC(=N)N)nc3c2)cc1 [TDI-014176]
Ae. aegypti NPYLR7; [5]
  EC50: 6.35 µM
Ae. aegypti NPYLR7; Figure 1E Summary, second list (n = 48), read-out: Reported Metric (Summary list)
  EC50: 6.35 µM
Ae. aegypti NPYLR7; HEK-293T, 0.0017 uM, single replicate, normalised response
  activation at 0.0017 µM: 4.15%
Ae. aegypti NPYLR7; HEK-293T, 0.0051 uM, single replicate, normalised response
  activation at 0.0051 µM: 3.37%
Ae. aegypti NPYLR7; [6]
  activation at 11.1111 µM: 88%
Ae. aegypti NPYLR7; [7]
  activation at 33.3333 µM: 131%
Ae. aegypti NPYLR7; HEK-293T, normalised response
  activation at 100 µM: 133%
Ae. aegypti NPYLR7; [4]
  EC50: 6.35 µM
Ae. aegypti NPYLR7; sheet Figure 3C, unit inferred, read-out: EC50
  EC50: 6.35 µM
Ae. aegypti NPYLR7; [8]
  EC50: 6.35 µM
[1]
  Attraction (relative to saline): 0.74
[2]
  % feeding (females feeding to repletion): 58.02%
